# Like-named read-outs stand apart in the source and are kept apart here.
# What was measured:
# [1] = target: A (H3N2) neuraminidase (NA) (Influenza A virus (H3N2), UniProt V9SU56); type: biochemical
# [2] = target: B/Victoria neuraminidase (NA); type: biochemical, influenza B/Victoria lineage virus
# [3] = target: A (H1N1)pdm09 neuraminidase (NA); type: biochemical, influenza A (H1N1)pdm09 virus; settings: read-out: IC50 Median
# A(H3N2) viruses = type: cell-based, influenza A(H3N2) virus; settings: read-out: Median EC50
# type A viruses = settings: cited from earlier work
# B/Victoria viruses = type: cell-based, influenza B/Victoria lineage virus
# A(H1N1)pdm09 viruses = type: cell-based, influenza A(H1N1)pdm09 virus; settings: read-out: Median EC50
# [4] = system: influenza B virus infections; settings: human, in vivo; cited from earlier work
# [5] = system: type B versus type A viruses; settings: cited from earlier work
smiles,measurement,setting,value
"CCC(CC)[C@H](NC(C)=O)[C@@H]1[C@H](O)[C@@H](C(=O)O)C[C@H]1N=C(N)N [Peramivir, peramivir]",IC50,[1]; read-out: IC50 Mean ± SD,0.09 ± 0.02 nM
same,IC50,[1]; read-out: IC50 Median,0.08 nM
same,IC50,[1]; read-out: IC50 Range,0.05 to 0.25 nM
same,IC50,[2]; read-out: IC50 Mean ± SD,0.35 ± 0.11 nM
same,IC50,[2]; read-out: IC50 Median,0.33 nM
same,IC50,[2]; read-out: IC50 Range,0.14 to 0.88 nM
same,IC50,[3],0.07 nM
"O=C1c2c(O)c(=O)ccn2N([C@@H]2c3ccccc3SCc3c2ccc(F)c3F)[C@@H]2COCCN12 [Baloxavir, baloxavir]",EC50,A(H3N2) viruses,0.58 nM
same,elevated baloxavir EC50,type A viruses,• Treatment-emergent • Rarely as natural polymorphisms • Confer elevated baloxavir EC50 (4–112-fold)
same,"median EC50 for B/Victoria viruses, fold higher than influenza A subtypes",B/Victoria viruses,5–7 fold
same,EC50,B/Victoria viruses; read-out: Median EC50,4.06 nM
same,EC50,A(H1N1)pdm09 viruses,0.8 nM
same,effectiveness in treatment,[4],more effective than oseltamivir
"CCOC(=O)C1=C[C@@H](OC(CC)CC)[C@H](NC(C)=O)[C@@H](N)C1 [Oseltamivir, oseltamivir]",lower activity against type B versus type A viruses,[5],47- to 80 fold
same,clinical effects against influenza B compared to influenza A virus infections,[4],reduced effects

# Source: paper PMC12621569 (Antiviral research, 2025)
